According to the NIST ThermoML archive (doi:10.1021/je500669y):

Test: xn = mol fraction of the nth substance listed
Conditions: Gas, isochoric method

F/C=C/C(F)(F)F [trans-1,3,3,3-tetrafluoropropene] + N#N
Conditions	specific volume [m3/kg]
263.05 K, 383.1 kPa, x2 = 0.75	0.114
263.16 K, 622.6 kPa, x2 = 0.746	0.069
273.12 K, 398.4 kPa, x2 = 0.75	0.114
273.13 K, 648.5 kPa, x2 = 0.746	0.069
273.19 K, 464.3 kPa, x2 = 0.5	0.066
283.07 K, 291.8 kPa, x2 = 0.495	0.11
283.1 K, 413.5 kPa, x2 = 0.75	0.114
283.1 K, 673.7 kPa, x2 = 0.746	0.069
283.12 K, 485.7 kPa, x2 = 0.5	0.066
293.08 K, 302.8 kPa, x2 = 0.495	0.11
293.09 K, 699 kPa, x2 = 0.746	0.069
293.11 K, 506.5 kPa, x2 = 0.5	0.066
293.13 K, 428.7 kPa, x2 = 0.75	0.114
303.05 K, 313.9 kPa, x2 = 0.495	0.11
303.16 K, 525.9 kPa, x2 = 0.5	0.066
303.17 K, 443.8 kPa, x2 = 0.75	0.114
303.18 K, 196.3 kPa, x2 = 0.254	0.136
303.19 K, 381.3 kPa, x2 = 0.25	0.069
303.35 K, 724.8 kPa, x2 = 0.746	0.069
313.14 K, 203.2 kPa, x2 = 0.254	0.136
313.17 K, 396.1 kPa, x2 = 0.25	0.069
313.17 K, 545.2 kPa, x2 = 0.5	0.066
313.18 K, 324.5 kPa, x2 = 0.495	0.11
313.18 K, 458.8 kPa, x2 = 0.75	0.114
313.2 K, 749.1 kPa, x2 = 0.746	0.069
323.13 K, 209.9 kPa, x2 = 0.254	0.136
323.15 K, 410.2 kPa, x2 = 0.25	0.069
323.16 K, 473.2 kPa, x2 = 0.75	0.114
323.17 K, 335.3 kPa, x2 = 0.495	0.11
323.17 K, 564 kPa, x2 = 0.5	0.066
323.17 K, 773.9 kPa, x2 = 0.746	0.069
333.16 K, 423.9 kPa, x2 = 0.25	0.069
333.17 K, 582.8 kPa, x2 = 0.5	0.066
333.17 K, 799.4 kPa, x2 = 0.746	0.069
333.18 K, 346.1 kPa, x2 = 0.495	0.11
333.19 K, 488.7 kPa, x2 = 0.75	0.114
333.34 K, 216.7 kPa, x2 = 0.254	0.136
343.11 K, 601.4 kPa, x2 = 0.5	0.066
343.12 K, 223.3 kPa, x2 = 0.254	0.136
343.12 K, 356.8 kPa, x2 = 0.495	0.11
343.13 K, 823.9 kPa, x2 = 0.746	0.069
343.14 K, 438.2 kPa, x2 = 0.25	0.069
343.14 K, 503.4 kPa, x2 = 0.75	0.114
353.05 K, 451.9 kPa, x2 = 0.25	0.069
353.08 K, 229.5 kPa, x2 = 0.254	0.136
353.1 K, 619.5 kPa, x2 = 0.5	0.066
353.11 K, 367.5 kPa, x2 = 0.495	0.111
353.13 K, 518.1 kPa, x2 = 0.75	0.114
353.13 K, 848.5 kPa, x2 = 0.746	0.069
363.06 K, 236.3 kPa, x2 = 0.254	0.136
363.1 K, 378.2 kPa, x2 = 0.495	0.111
363.1 K, 465.8 kPa, x2 = 0.25	0.069
363.1 K, 872.9 kPa, x2 = 0.746	0.069
363.12 K, 638.7 kPa, x2 = 0.5	0.066
363.25 K, 533.3 kPa, x2 = 0.75	0.114
373 K, 242.6 kPa, x2 = 0.254	0.136
373.07 K, 547.3 kPa, x2 = 0.75	0.114
373.09 K, 389.2 kPa, x2 = 0.495	0.111
373.09 K, 657 kPa, x2 = 0.5	0.066
373.1 K, 479.5 kPa, x2 = 0.25	0.069
373.16 K, 897.7 kPa, x2 = 0.746	0.069
383.05 K, 675.5 kPa, x2 = 0.5	0.066
383.06 K, 494.4 kPa, x2 = 0.25	0.069
383.08 K, 922.8 kPa, x2 = 0.746	0.069
383.09 K, 399.9 kPa, x2 = 0.495	0.111
383.09 K, 562.6 kPa, x2 = 0.75	0.114
383.26 K, 249.6 kPa, x2 = 0.254	0.136
393.05 K, 508.1 kPa, x2 = 0.25	0.069
393.06 K, 577.5 kPa, x2 = 0.75	0.114
393.06 K, 694 kPa, x2 = 0.5	0.066
393.08 K, 410.6 kPa, x2 = 0.495	0.111
393.13 K, 947.3 kPa, x2 = 0.746	0.069
393.14 K, 256.3 kPa, x2 = 0.254	0.136
402.99 K, 421.1 kPa, x2 = 0.495	0.111
403.04 K, 521.2 kPa, x2 = 0.25	0.069
403.04 K, 592.5 kPa, x2 = 0.75	0.114
403.05 K, 712.5 kPa, x2 = 0.5	0.066
403.1 K, 971.7 kPa, x2 = 0.746	0.069
403.14 K, 262.9 kPa, x2 = 0.254	0.137
413 K, 432.1 kPa, x2 = 0.495	0.111
413.01 K, 535.2 kPa, x2 = 0.25	0.069
413.04 K, 995.8 kPa, x2 = 0.746	0.069
413.06 K, 607.4 kPa, x2 = 0.75	0.114
413.1 K, 731 kPa, x2 = 0.5	0.066
413.13 K, 269.4 kPa, x2 = 0.254	0.137
